Assay results published in patent publication US20120083473A1, “TREATMENT OF CONDITIONS BY TOLL-LIKE RECEPTOR MODULATORS” (priority 2010, published 2012).

Columns and labels:
[1] = system: human monocytes (Mo); assay: Cross-tolerance toward TLR ligands in human monocytes (gene expression); assay type: cell-based
Protocol: To evaluate the effects of TMX on human cell activation, monocytes were isolated from buffy coats obtained from four different healthy donors. With respect to macrophage tolerance, cells were treated with Compound 2 (10 microM) up to 20 hours and then re-challenged with agonists/ligands of different TLRs (TLR2, TLR4, TLR5, TLR9, TLR7, etc. . . . ), including the TLR7 unconjugated ligand 1V209 (free pharmacophore) at a concentration of 10 microM.
(§1) Cell Culture and treatments. Monocytes (Mo) were obtained from buffycoats collected from healthy donors as previously described (Porta C et al, PNAS 2009). Cells were incubated in RPMI 1640 medium, containing 10% fetal bovine serum, 2 mM glutamine and 100 U/ml of penicillin-streptomycin. The concentrations for the different treatments were as follows: LPS (100 ng/ml) (Lipopolysaccharide from Salmonella Abortus Equi S-form, Alexis), CpG (1 microg/ml), Pam3CSK (2 microg/ml), Poly I:C (10 microg/ml), Loxorubine (100 microM), flagellin (100 ng/ml). To induce TMX tolerance, cells were incubated in the presence of TMX (10 microM) for 20 hrs, washed and maintained in RPMI medium for 2 hrs and then re-challenged with TMX (10 microM) for 4 hrs. To induce TMX-tolerization (T/M) cells were treated with TMX for 20 hrs, washed and then maintained in medium for additional 6 hours, without TMX re-challenge. To induce M1-activation cells were incubated in medium for 20 hrs, washed, left in medium for 2 hrs and finally stimulated with TMX (10 microM) for 4 hrs. Control cells (M/M) were cultured in medium for the entire period of the experiment. For gene expression analysis, total RNA was extracted from TMX treated and untreated cells with trizol (Invitrogen), according to the manufacturer's instructions. To analyze cytokines and chemokines production supernatants were collected 24 hrs after the second challenge with TMX.
Real-Time PCR. Total RNA was purified as previously described. Briefly, reverse transcription from 1 microgram of RNA was performed using a cDNA Archive kit (Applied Biosystem, NJ, USA). Real time PCR was performed using Power Syber Green PCR Master Mix (Applied Biosystem, NJ, USA) and detected by 7900HT Fast Real-Time System (Applied Biosystem, NJ, USA). Data were processed using the SDS2.2.2 software (Applied Biosystem, NJ, USA). Results were normalized to the expression of the housekeeping gene 8-actin and then expressed as folds of upregulation, with respect to the control cell population.

[2] = PK analysis after i.v. administration in mice; assay type: in vivo
[3] = system: human monocytes (Mo); assay: Cytokine/chemokine secretion by TMX-tolerant human monocytes (ELISA); assay type: cell-based
Protocol: as §1
ELISA. Cell-free supernatants were tested by ELISA for the indicated cytokines/chemokines. Human TNF-alpha, IL-6, IL-1beta, IL-10, CCL17 and CCL22 ELISA kits were purchased from R&D Systems (Minneapolis, Minn.).

[4] = system: Bleomycin-induced fibrosis in C57BU6 mice; assay: Bleomycin-induced lung fibrosis in mice; assay type: in vivo; details: 500 nmol/animal s.c. daily; day 7 and day 21; ELISA
Protocol: The efficacy of Compound 2 on mouse models of idiopathic lung fibrosis was studied as follows. Lung fibrosis was induced in 6-8 week old female C57BU6 mice. 0.8 U/kg of bleomycin (Hospira, Inc., Lake Forest, Ill.) was administered by intratracheal (i.t.) instillation on day 0. Bleomycin treated C57BU6 mice were divided into four groups (n 7 per group). Groups 2 and 4 were subcutaneously treated with Compound 2 at daily dose of 500 nmol/animal. Groups 1 and 3 were treated with saline control. Groups 1 and 2 were sacrificed on day 7 and groups 3 and 4 were sacrificed on day 21.
Measurements: Lung inflammation and fibrosis were evaluated by the following parameters: 1) cell infiltration to bronchial alveolar lavage (BAL); BAL were collected at the time of sacrifice and cell number was counted by hematocytometer. The infiltrated cells were differentiated by Wright-Giemsa staining. 2) BAL cytokines (IL-6, and IL-1b) by ELISA). 3) Lung histology by H&E staining and Sirius red staining (fibrosis). Histological samples were evaluated blindly.

[5] = TMX-tolerized cells re-challenged with TMX or 1V209

COCCOc1nc(N)c2nc(O)n(Cc3ccc(C(=O)NCCOCCOCCOCCOCCOCCOCCn4cc(CCC(=O)O)nn4)cc3)c2n1 [Compound 2]
TNFalpha, IL-1 beta, IL-6 and IL-12 gene expression in response to TLR ligands ([1]; Mo tolerized by 20 hours pre-treatment, excluding Pam): inability to up-regulate
down-regulation of M1 marker IL-12p40 ([1]; TMX pretreatment, stimulation through TLRs other than TLR7): ~10 fold
M2 gene induction, CCL17 in particular ([1]; TMX treatment, TLR agonist re-challenge): strongly enhanced
Th2-recruiting chemokines genes (CCL17, CCL22) on TLR engagement ([1]; tolerized Mo, but not IL-10): trigger the expression
AUC in comparison with Compound 3 [2]: lower
Cmax in comparison with Compound 3 [2]: lower
clearance in comparison with Compound 3 [2]: higher
half life in comparison with Compound 3 [2]: longer
levels of IL-10 in the supernatant of TMX-tolerant monocytes [3]: decreased
secretion of selected M2 markers (CCL17 and CCL22) ([3]; TMX-tolerized Mo from 2 out of 4 healthy donors): significantly augmented
CCL17 and CCL22 secretion [3, 5]: induction
TNFalpha and IL-6 secretion [3, 5]: inhibition
IL-10 production by Compound 2-conditioned cells ([3]; as stated in comparison of human and mouse data): increased
TNF and IL-6 secretion ([3]; cells tolerized with TMX and re-challenged with TLR agonists, except for LPS): decreased
IL-1beta production in TMX-tolerized cells ([3]; re-challenged with TLR agonists): all TLR agonists promote IL-1beta production
levels of IL-6 and IL-1b cytokines in BAL [4]: under the detection levels of ELISA
